Data taken from publication PMC10434068, “Discriminating Susceptibility of Xanthine Oxidoreductase Family to Metals” (Microbiology Spectrum, 2023).

What was measured:
[1] = molecular target: T1, pCOD (putative CO dehydrogenase; CoxSLM complex) (Rubrivivax gelatinosus, UniProt I0HW74+I0HW75); experiment: in-gel NBT reductase activity, native PAGE of soluble fraction, no riboflavin; format: biochemical; conditions: NBT 2 mg/mL; 50 mM Tris-HCl pH 7.6; room temperature, dark; no electron donor added; reduction may run through superoxide
T1 construct: gene coxL; native complex in soluble fraction, native PAGE band between 130 and 250 kDa; predicted 126 kDa (CoxL 84, CoxM 27, CoxS 17 kDa); band absent in coxL mutant; with Carbon monoxide dehydrogenase large chain; Carbon monoxide dehydrogenase small chain
T1 sequence (I0HW74 1-781): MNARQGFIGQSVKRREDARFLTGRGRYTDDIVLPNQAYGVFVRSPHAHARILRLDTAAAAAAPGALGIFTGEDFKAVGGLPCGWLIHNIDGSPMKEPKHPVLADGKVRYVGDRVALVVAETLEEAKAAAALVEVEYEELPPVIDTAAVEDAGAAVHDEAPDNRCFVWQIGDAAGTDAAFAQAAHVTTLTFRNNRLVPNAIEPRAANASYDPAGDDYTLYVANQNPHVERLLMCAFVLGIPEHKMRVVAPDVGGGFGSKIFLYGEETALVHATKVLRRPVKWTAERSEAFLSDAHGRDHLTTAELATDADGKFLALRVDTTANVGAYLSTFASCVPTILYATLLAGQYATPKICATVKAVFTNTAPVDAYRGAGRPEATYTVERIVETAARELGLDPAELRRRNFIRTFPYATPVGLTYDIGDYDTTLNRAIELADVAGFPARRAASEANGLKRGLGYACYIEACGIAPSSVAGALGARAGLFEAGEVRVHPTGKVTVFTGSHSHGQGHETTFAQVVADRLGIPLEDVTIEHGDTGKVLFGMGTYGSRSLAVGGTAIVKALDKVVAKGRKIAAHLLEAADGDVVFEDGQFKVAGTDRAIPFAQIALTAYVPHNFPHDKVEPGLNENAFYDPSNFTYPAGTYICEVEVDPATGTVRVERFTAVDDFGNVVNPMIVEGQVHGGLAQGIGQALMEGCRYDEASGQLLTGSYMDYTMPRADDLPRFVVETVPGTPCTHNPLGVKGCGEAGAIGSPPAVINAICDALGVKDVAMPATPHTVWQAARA
T1 sequence (I0HW75 1-265): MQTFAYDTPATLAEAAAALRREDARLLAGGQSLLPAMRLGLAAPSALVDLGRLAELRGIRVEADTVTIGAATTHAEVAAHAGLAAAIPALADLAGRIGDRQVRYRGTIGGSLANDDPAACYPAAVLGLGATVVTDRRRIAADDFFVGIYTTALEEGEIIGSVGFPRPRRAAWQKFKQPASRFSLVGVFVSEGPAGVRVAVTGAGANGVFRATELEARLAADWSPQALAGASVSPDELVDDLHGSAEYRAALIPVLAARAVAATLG
T1 sequence (I0HW73 1-155 partner): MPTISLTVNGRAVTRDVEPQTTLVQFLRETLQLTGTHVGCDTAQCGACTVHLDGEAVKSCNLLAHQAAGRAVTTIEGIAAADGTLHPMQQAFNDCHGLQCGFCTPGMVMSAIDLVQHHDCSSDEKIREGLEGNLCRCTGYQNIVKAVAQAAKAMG

[2] = molecular target: T2, XDH (xanthine dehydrogenase) of R. gelatinosus (Rubrivivax gelatinosus, UniProt I0HWE5); experiment: in-gel NBT reductase activity, native PAGE of soluble fraction; format: biochemical; conditions: NBT 2 mg/mL as electron acceptor; 50 mM Tris-HCl pH 7.6; room temperature
T2 construct: gene xdhB; native complex of about 250 kDa in soluble fraction, native PAGE band; XdhB 82 kDa, XdhA 54 kDa, XdhC 27 kDa; band absent in xdhB mutant; with Xanthine dehydrogenase, FAD and iron-sulfur subunit XdhA; Xanthine dehydrogenase subunit or accessory protein XdhC
T2 sequence (I0HWE5 1-778): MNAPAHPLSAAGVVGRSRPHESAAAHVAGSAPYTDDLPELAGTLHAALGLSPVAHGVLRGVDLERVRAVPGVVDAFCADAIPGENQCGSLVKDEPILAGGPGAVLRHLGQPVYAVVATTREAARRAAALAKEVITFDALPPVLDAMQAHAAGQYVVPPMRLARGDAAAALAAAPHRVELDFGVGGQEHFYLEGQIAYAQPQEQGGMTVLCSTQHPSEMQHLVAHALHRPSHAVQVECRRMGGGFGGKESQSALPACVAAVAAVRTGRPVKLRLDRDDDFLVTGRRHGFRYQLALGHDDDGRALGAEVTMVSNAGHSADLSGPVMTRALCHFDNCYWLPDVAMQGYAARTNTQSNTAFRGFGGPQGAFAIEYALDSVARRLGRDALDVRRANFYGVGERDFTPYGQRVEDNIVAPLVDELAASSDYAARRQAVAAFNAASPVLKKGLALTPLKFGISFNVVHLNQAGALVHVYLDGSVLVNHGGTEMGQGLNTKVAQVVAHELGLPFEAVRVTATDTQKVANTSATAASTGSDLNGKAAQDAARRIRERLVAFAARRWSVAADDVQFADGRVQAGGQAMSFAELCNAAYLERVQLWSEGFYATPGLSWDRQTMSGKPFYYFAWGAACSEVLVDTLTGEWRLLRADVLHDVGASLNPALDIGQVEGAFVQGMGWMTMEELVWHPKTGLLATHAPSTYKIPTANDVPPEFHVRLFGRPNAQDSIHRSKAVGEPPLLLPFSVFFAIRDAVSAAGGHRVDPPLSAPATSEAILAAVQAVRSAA
T2 sequence (I0HWE6 1-493 partner): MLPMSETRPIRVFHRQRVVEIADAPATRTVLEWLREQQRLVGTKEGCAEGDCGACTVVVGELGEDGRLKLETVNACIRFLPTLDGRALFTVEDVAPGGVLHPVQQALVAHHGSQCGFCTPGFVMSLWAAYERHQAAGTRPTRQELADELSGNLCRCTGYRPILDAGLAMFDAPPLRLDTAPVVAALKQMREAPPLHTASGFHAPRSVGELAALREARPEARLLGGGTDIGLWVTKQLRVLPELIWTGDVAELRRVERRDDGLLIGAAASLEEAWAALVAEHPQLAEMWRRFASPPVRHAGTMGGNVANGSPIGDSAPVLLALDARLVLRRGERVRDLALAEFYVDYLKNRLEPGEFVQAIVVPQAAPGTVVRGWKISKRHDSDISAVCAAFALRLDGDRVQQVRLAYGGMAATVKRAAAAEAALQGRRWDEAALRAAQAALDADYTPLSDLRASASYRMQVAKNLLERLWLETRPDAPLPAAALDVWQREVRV

Row | SMILES | in-gel NBT reductase activity, native PAGE of soluble fraction, no riboflavin [1] | in-gel NBT reductase activity, native PAGE of soluble fraction [2]
1 | COc1cc(-c2ccc(-n3nc(-c4ccccc4)n[n+]3-c3ccc([N+](=O)[O-])cc3)c(OC)c2)ccc1-n1nc(-c2ccccc2)n[n+]1-c1ccc([N+](=O)[O-])cc1 [nitroblue tetrazolium] | able to reduce NBT to NBT-formazan in the absence of riboflavin | –
2 | O=c1[nH]c(=O)c2[nH]cnc2[nH]1 [xanthine] | – | the addition of xanthine to the native PAGE gel revealed a second active band
